Earlier results in paper PMC11190158, “Study on the design, synthesis, and activity of anti-tumor staple peptides targeting MDM2/MDMX” (Frontiers in Chemistry, 2024).

Key:
MDM2 = system: MDM2; set-up: method as in 2 sources, one per row (each row's own in cited_ref): ref Zhan and Lu, 2011; Brown et al., 2013; Wade et al., 2013 ||| ref Zhan et al., 2012a; Zhan et al., 2012b; Li et al., 2021; conditions: in words, surface plasmon resonance and fluorescence polarization, ref Zhan et al., 2012a, 2012b, Li et al., 2021; cited from earlier work
MDMX = system: MDMX; set-up: method as in 2 sources, one per row (each row's own in cited_ref): ref Zhan and Lu, 2011; Brown et al., 2013; Wade et al., 2013 ||| ref Zhan et al., 2012a; Zhan et al., 2012b; Li et al., 2021; conditions: in words, surface plasmon resonance and fluorescence polarization, ref Zhan et al., 2012a, 2012b, Li et al., 2021; cited from earlier work

Question: With LTFLEYWAQLMQ [PMI-M3] as the sequence, how does the “binding to MDM2” value (MDM2) read?
Answer: binds well

Question: And the “binding to MDMX” value (MDMX)?
Answer: binds well
